Consider 1 molecule from BindingDB's records for doi:10.1016/j.bmcl.2009.01.068 (Methylgene, 2009).

The nature of experiment [1]: Inhibition of c-Met-mediated scattering in HGF-stimulated human DU145 cells.
Experiment [2] is described as follows: Inhibition of c-Met-mediated migration in HGF-stimulated human A549 cells by wound healing assay.

Broadly, the IC50 is the concentration needed to halve the response being measured. Low values mean greater potency in that assay, high ones weaker potency in that assay. Consider `CCn1cnc(-c2cc3nccc(Oc4ccc(NC(=O)N5CCN(c6ccc(F)cc6)C5=O)cc4F)c3s2)c1` [N-(4-(2-(1-ethyl-1H-imidazol-4-yl)thieno[3,2-b]pyridin-7-yloxy)-3-fluorophenyl)-3-(4-fluorophenyl)-2-oxoimidazolidine-1-carboxamide], for which the IC50 in experiment [1] was 80 nM; in experiment [2] it was 240 nM.
